“Also recorded” adds a separate entry of the source. Residues, ends and D or L forms follow the SMILES beside them. *: point of attachment. Palmitoyl = CCCCCCCCCCCCCCCC(=O)*
Legend:
Type in all cases: cell-based
FPR2 [1] = assay: Receptor preference in human neutrophils (FPR2 versus FPR1); settings: conclusion from superoxide release experiments
From the text: (§1) Human peripheral blood neutrophils were isolated from buffy coats from healthy blood donors using dextran sedimentation and Ficoll-Paque gradient centrifugation as described. The remaining erythrocytes were disrupted by hypotonic lysis and the neutrophils were washed twice, suspended in KRG and, stored on melting ice until use. This isolation process permits cells to be purified with minimal granule mobilization. The buffy coats were obtained from the blood bank at Sahlgrenska University Hospital. Ethics approval was not needed since the buffy coats were provided anonymously and could not be traced back to a specific individual. This is in line with Swedish legislation section code 4§ 3p SFS 2003:460 (Lag om etikprövning av forskning som avser människor).
(§2) NADPH-oxidase activity was determined using an isoluminol and HRP-enhanced chemiluminescence (CL) system that allow for the determination of superoxide production. The CL activity was measured in a six-channel Biolumat LB 9505 apparatus (Berthold Co., Wildbad, Germany), using disposable 4-mL polypropylene tubes with 1 mL reaction mixture. […] The light emission was recorded continuously over time and presented as superoxide production (in arbitrary light units, cpm x10^-6) as a function of time (min). The activity before stimulus addition was recorded as basal line and this activity was not changed in vehicle control samples. […]

Fpr2 [2] = biological target: T1, Fpr2 (Mus musculus, UniProt O88536); assay: Receptor preference in mouse neutrophils (Fpr2 versus Fpr1); settings: conclusion from superoxide release, Fpr2^-/- cells, desensitization and inhibitors
T1 construct: WT mouse neutrophils (5 x 10^4 cells) were pre-incubated without (solid line) or with mF2Pal16; endogenous in cells; host or cells: bone marrow neutrophils of C57BL/6 wild-type mice, TNF-alpha primed
T1 sequence (O88536 1-351): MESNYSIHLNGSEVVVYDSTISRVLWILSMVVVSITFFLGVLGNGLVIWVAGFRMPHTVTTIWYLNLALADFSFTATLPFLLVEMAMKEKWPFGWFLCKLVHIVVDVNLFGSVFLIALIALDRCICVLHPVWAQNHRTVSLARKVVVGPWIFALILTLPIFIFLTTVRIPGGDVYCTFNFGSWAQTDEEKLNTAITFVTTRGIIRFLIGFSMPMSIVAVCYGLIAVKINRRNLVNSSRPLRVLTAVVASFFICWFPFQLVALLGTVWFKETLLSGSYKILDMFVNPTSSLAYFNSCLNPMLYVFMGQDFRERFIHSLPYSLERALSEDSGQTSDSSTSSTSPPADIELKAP
From the text: C57BL/6 wild-type mice were purchased from Charles River Laboratories and Fpr2^−/− mice generated as described previously, were generously provided by Dr Ji Ming Wang, Frederick National Laboratory for Cancer Research, USA. Mice were kept under standard temperature and light conditions and fed laboratory chow and water ad libitum, at the Department of Rheumatology and Inflammation Research, University of Gothenburg. Sex matched WT and Fpr2^-/- animals (age 8–10 weeks) were used to isolated bone marrow derived neutrophils. The studies performed were approved by the Ethical Committee for Animal Experimentation, Göteborg, Sweden.
Mice (8–12 weeks of age) were killed by cervical dislocation, the femurs and tibias were removed and freed of soft tissue attachments, and the extreme distal tip of each extremity was cut off. […] The cell number and population of bone marrow cells were determined by flow cytometry based on forward scatter (size) and side scatter (density) localization.
NADPH-oxidase activity was determined using an isoluminol and HRP-enhanced chemiluminescence (CL) system that allow for the determination of superoxide production. The CL activity was measured in a six-channel Biolumat LB 9505 apparatus (Berthold Co., Wildbad, Germany), using disposable 4-mL polypropylene tubes with 1 mL reaction mixture. […]

FPR1 = assay: Inhibition of fMLF-induced superoxide release, human neutrophils; settings: pepducin 1 μM; fMLF 50 nM
From the text: as §1, §2

CCCCCCCCCCCCCCCC(=O)N[C@@H](CCCCN)C(=O)N[C@H](C(=O)N[C@@H](CC(N)=O)C(=O)N[C@@H](CCCNC(=N)N)C(=O)N[C@@H](CCCNC(=N)N)C(=O)N[C@@H](CC(N)=O)C(=O)N[C@@H](CC(C)C)C(=O)N[C@H](C(=O)N[C@@H](CC(N)=O)C(=O)N[C@@H](CO)C(=O)N[C@@H](CO)C(=O)N[C@@H](CCCNC(=N)N)C(=O)N1CCC[C@H]1C(=O)N[C@@H](CC(C)C)C(=O)N[C@@H](CCCNC(=N)N)C(=O)N[C@H](C(=O)O)C(C)C)C(C)C)[C@@H](C)CC [mF2Pal16] (Palmitoyl-KINRRNLVNSSRPLRV-OH; C-terminus assumed)
receptor preference / modulation of FPR2 (versus FPR1) in human neutrophils (FPR2 [1]): potent and selective inhibitor for Fpr2/FPR2; also recorded: inhibits the activity of FPR2 in human neutrophils | receptor preference / modulation of Fpr2 (versus Fpr1) in mouse neutrophils (Fpr2 [2]): inhibits the activity of Fpr2 in mouse neutrophils; also recorded: potent and selective inhibitor for Fpr2/FPR2; also recorded: targets this receptor | effect on fMLF response, human neutrophils (FPR1): lack of inhibitory effect

— PMC5608352, “Formyl peptide derived lipopeptides disclose differences between the receptors in mouse and men and call the pepducin concept in question” (PLoS ONE, 2017)
